The target of experiment [1] is T1, full-length NS3/4A protease (genotype 1b) (Hepatitis C virus genotype 1b, UniProt Q9WMX2).
T1 construct: wild-type HCV NS3 (HCV polyprotein residues 1027–1657); His-tag (N); made in house
In words: biochemical. As for the experimental part:
All assays were done in duplicate in black 384-well plates (Matrix Technologies). […] 200 nL of 10 mM compound (50 µM final concentrations) were then added and incubated for 5 minutes. Enzyme reactions were initiated with 10 µL of substrate Ac-DE-Dap(QXL520)-EE-Abu-ψ-[COO]AS-C(5-FAMsp)-NH2 (Anaspec) (1 µM final concentration), incubated for 6 minutes, and quenched by 10 µL of 10% SDS as a stop solution. Fluorescence intensity was monitored with a POLARstar OPTIMA microplate reader (BMG LABTECH). Each plate contained a total of 32 positive and 32 negative controls.
(§1) A series of compound concentrations (0 to 200 µM final concentration at 2-fold serial dilution) in 100% DMSO were prepared in a 384-well plate. 20 µL of enzyme solution was distributed to wells, and 0.5 µL of varying concentration of compounds were added and incubated for 5 minutes. The enzyme reaction was initiated by adding 5 µL of the substrate, and its activity was continuously monitored for 6 minutes. The IC50 values were calculated by fitting with the Hill equation (1), with OriginPro 8.5 (OriginLab, Inc.) where y is percent inhibition, x is inhibitor concentration, n is the slope of the concentration–response curve (Hill slope), and Vmax is maximal inhibition from two to four independent assays. [drawing 1] (1)

In a further experiment the target is T2, NS3 protease domain (Hepatitis C virus genotype 1b, UniProt Q9WMX2).
T2 construct: the full-length NS3/4A and the NS3/4A protease domain alone
As to the kind of experiment: Fluorescence enzymatic assay with NS3 protease domain alone. The experiment is classed as biochemical. As to conditions: NS3/4A protease domain only; read-out: IC50 NS3 protease domain. The method, then:
as §1

For experiment [2], the target named is T3, full-length NS3/4A genotype 1b mutant A156V (Hepatitis C virus genotype 1b, UniProt Q9WMX2, A1182V).
T3 construct: wild-type HCV NS3 (HCV polyprotein residues 1027–1657); His-tag (N); made in house
As to the kind of experiment: Inhibition assay with drug-resistant mutant A156V. It is filed as biochemical. To be noted: genotype 1b full-length mutant. The method, then:
The full-length genes of wild-type HCV NS3 (HCV polyprotein residues 1027–1657) with a his-tag at the N-terminus and NS4A (residues 1658–1711) with no tag were cloned, co-expressed, and purified as described. Eight NS3 drug resistant mutants (V36M, V36A, T54A, R155K, R155T, A156T, A156S, and 156V) were generated by mutagenesis using full-length, wild-type NS3-containing recombinant plasmid (pETDuet-1/FL NS3/4A) as a template. The over-expression and purification of all mutants were performed by the same method as the wild-type with minor modifications.
The inhibitory activity of the final hit compounds from HTS were tested against three other HCV genotypes (1a, 2a, and 4d), along with a control (genotype 1b) and five NS3 drug-resistant mutants. Eight full-length NS3 mutants (V36M, R155K, A156T, A156S, 156V, V36A, T54A, and R155T) were generated by mutagenesis and purified, and the three HCV NS3/4A protease genotypes were purchased from Anaspec. Unfortunately the enzyme activities of the three mutants V36A, T54A, and R155T were much less than that of the rest of the mutants and were insufficient for testing, therefore mutant studies were done with the five active mutants. Continuous kinetic assays were performed against all hit compounds in the same way as the wild-type NS3/4A. […]

Experiment [3] concerns the target T4, HCV replicon cell lysate sg 1b (NS3) (Hepatitis C virus genotype 1b, UniProt Q9WMX2).
T4 construct: host or cells: Huh7 Clone B cells stably replicating an HCV 1b subgenomic replicon; whole cell lysate
In words: Whole cell lysate inhibition assay, HCV subgenomic replicon 1b. It is filed as biochemical. The method, then:
Huh7-1 cells (also known as Huh7/scr cells) were obtained from F.V. Chisari (The Scripps Research Institute, La Jolla, CA). Clone B HCV sub-genotype 1b Huh7 cells were obtained from the NIH AIDS Research and Reference Reagent Program and have been previously described. Huh7 cells stably replicating the sub-genotype 2a HCV JFH-1 replicon were generated as previously described. All cells were cultured in complete Dulbecco’s modified Eagle’s medium (DMEM) supplemented with 10% fetal bovine serum, 100 units/mL penicillin, […] streptomycin, and 2 mM L-glutamine. HCV replicon cells were maintained in 500 µg/mL Geneticin (Invitrogen). For NS3 inhibition analysis, lysates from parental Huh7 cells and HCV replicon cells were harvested on ice in pre-chilled FRET cell lysis buffer (50 mM Tris-HCl, pH 7.5; 150 mM NaCl, 2 mM EDTA, 1.25% Triton X-100). Lysates were brought to room temperature and mixed 1∶1 with 2× FRET assay buffer (100 mM Tris-HCl, pH 7.5, 300 mM NaCl, 4 mM EDTA, 2.5% Triton X-100, 10 mM GSH, and 4 µM substrate). Fluorescence intensity was continuously monitored for 1 hour, and IC50 values were determined in the same way as biochemical assays.

Where “and” joins values, the source holds several entries; their conditions need not be identical. Equal values may be shown once.

In the case of `Cc1cc(NC(=O)Cc2csc(NS(=O)(=O)c3ccccc3)n2)ccc1Br` [Compound 12], the LE in experiment [1] (calculated with IC50 values from the full-length NS3/4A) is 0.29 kcal/mol/heavy atom. In addition, the IC50 in experiment [1] (purified full-length NS3/4A, genotype 1b wild-type, read-out: IC50 Full-length NS3/4A) is 2.2 ± 0.4 µM; on NS3 protease domain it was 9.3 ± 1.6 µM; in experiment [2], no more than 20 µM; in experiment [3] (whole cell lysate, subgenomic replicon 1b), < 120 µM and 29.3 µM. In experiment [3] (sg1b lysate compared to purified enzyme), the “fold increase of IC50, whole cell lysate 1b vs biochemical assay” value is 10–20 fold.

The values above are taken from article PMC3793977, “High-Throughput Screening (HTS) and Hit Validation to Identify Small Molecule Inhibitors with Activity against NS3/4A proteases from Multiple Hepatitis C Virus Genotypes” (PLoS ONE, 2013).
